Literature values in PMC8374649, “IBI362 (LY3305677), a weekly-dose GLP-1 and glucagon receptor dual agonist, in Chinese adults with overweight or obesity: A randomised, placebo-controlled, multiple ascending dose phase 1b study” (EClinicalMedicine, 2021).

How the values were obtained:
[1] = system: Japanese adults with type 2 diabetes; conditions: once-daily, 48-day phase 2a study; cited from earlier work
Excerpt: Despite the weight loss effect of glucagon, its inherited stimulation of gluconeogenesis and glycogenolysis requires optimal balancing of GLP-1 and glucagon receptor activities for dual agonists. […] IBI362 has b ...

[2] = system: patients with type 2 diabetes; conditions: 12-week administration; cited from earlier work
Excerpt: A remarkable and unexpected finding of this study was the statistically significant reduction in serum uric acid levels in participants receiving IBI362. BMI is strongly positively correlated with serum uric acid levels, and weight loss is a commonly recommended treatment for gout, a disease resulting from chronic elevation of serum uric acid, [29], [30]. Although GLP-1 receptor agonists promote weight loss, direct evidence regarding the relationship between GLP-1 receptor agonists and blood uric acid level is limited.

Row | Substance | Weight loss and glycaemic control [1] | Plasma uric acid levels compared with placebo [2]
1 | Cotadutide | optimal weight loss and glycaemic control | –
2 | liraglutide (HAEGTFTSDVSSYLEGQAAKEFIAWLVRGRG; chains of the INN, looked up) [GLP-1 receptor agonist] | – | did not reduce plasma uric acid levels
